Experimental data published in the Kinase Knowledgebase extract (Sharma et al. 2016).

Molecular target: PIK3CA (human) (UniProt P42336)
Experiment: Inhibition of PIK3CA Kinase Activity

Chain of PIK3CA (human) (P42336 whole entry, looked up): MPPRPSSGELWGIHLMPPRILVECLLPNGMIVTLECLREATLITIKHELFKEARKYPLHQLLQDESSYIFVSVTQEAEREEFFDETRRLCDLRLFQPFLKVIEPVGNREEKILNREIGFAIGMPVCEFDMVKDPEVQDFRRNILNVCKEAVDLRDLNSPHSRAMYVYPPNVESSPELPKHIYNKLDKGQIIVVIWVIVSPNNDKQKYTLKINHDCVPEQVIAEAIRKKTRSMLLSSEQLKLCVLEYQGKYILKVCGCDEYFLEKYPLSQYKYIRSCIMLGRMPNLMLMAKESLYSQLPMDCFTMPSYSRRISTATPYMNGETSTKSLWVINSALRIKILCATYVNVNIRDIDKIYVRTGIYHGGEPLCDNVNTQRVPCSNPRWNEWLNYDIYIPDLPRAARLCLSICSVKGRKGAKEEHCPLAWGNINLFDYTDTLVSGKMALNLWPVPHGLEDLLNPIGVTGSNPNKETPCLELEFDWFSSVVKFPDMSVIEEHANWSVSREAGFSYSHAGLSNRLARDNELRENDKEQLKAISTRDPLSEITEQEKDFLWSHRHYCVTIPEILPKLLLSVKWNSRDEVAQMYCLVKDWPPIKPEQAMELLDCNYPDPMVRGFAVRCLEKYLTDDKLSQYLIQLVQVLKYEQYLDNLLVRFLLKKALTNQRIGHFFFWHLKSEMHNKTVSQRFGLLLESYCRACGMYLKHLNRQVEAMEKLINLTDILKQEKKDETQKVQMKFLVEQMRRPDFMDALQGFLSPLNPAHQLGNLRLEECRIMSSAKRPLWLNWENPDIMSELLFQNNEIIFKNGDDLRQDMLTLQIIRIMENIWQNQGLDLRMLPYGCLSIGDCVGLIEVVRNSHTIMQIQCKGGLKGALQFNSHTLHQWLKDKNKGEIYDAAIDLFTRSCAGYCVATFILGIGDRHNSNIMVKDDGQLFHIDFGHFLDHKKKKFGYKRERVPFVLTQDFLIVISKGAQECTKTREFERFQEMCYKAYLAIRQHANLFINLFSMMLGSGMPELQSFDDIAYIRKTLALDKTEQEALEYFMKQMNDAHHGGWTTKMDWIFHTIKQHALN

| Compound | IC50 [nM] |
| --- | --- |
| CC(=O)Nc1nc2ccc(-c3ccc(NC4CCOCC4)nc3)cc2s1 | < 1000 |
| Nc1ncc(-c2ccc3nc(NC(=O)c4ccccc4C(=O)O)cn3c2)cc1C(F)(F)F | < 10000 |
| N#CN=C(N)NCCCC(=O)Nc1cn2nc(-c3cnc(N)c(C(F)(F)F)c3)ccc2n1 | < 1000 |
| CC(=O)Nc1cn2cc(-c3cnc(N)c(Oc4cccc(F)c4)n3)cc(F)c2n1 | < 1000 |
| Nc1ncc(-c2ccc3nc(NC(=O)N4CCCC4Cc4ccccn4)cn3c2)cc1C(F)(F)F (centres undefined) | < 1000 |
| CC(=O)N1CCCC[C@@H]1C(=O)Nc1cn2cc(-c3cnc(N)c(C(F)(F)F)c3)ccc2n1 | < 10000 |
| Nc1ncc(-c2ccc3nc(NC(=O)[C@H]4CCC(=O)O4)cn3c2)cc1C(F)(F)F | < 1000 |
| Nc1ncc(-c2ccc3nc(NC(=O)N4CCCC4c4ccco4)cn3c2)cc1C(F)(F)F (centres undefined) | < 1000 |
| COc1ccc(C2CCCN2C(=O)Nc2cn3cc(-c4cnc(N)c(C(F)(F)F)c4)ccc3n2)cc1OC (centres undefined) | < 1000 |
| CC(=O)Nc1cn2cc(-c3cnc(N)c(O[C@H](C)C(F)(F)F)n3)cc(F)c2n1 | < 1000 |
| CC(=O)Nc1cn2cc(-c3cnc(N)c(O[C@@H](C)C(F)(F)F)n3)cc(F)c2n1 | < 1000 |
| Nc1ncc(-c2ccc3nc(NC(=O)c4cccc(-c5nn[nH]n5)c4)cn3c2)cc1C(F)(F)F | < 1000 |
| CC(=O)Nc1nc2ccc(-c3cnc(N)c(C(F)(F)F)c3)cn2c1C(C)=O | < 10000 |
| CC(=O)Nc1nc2ccc(-c3cnc(NC(C)=O)c(C(F)(F)F)c3)cc2s1 | < 1000 |
| Nc1ncc(-c2ccc3nc(NC(=O)C4CCC(=O)N4)cn3c2)cc1C(F)(F)F (centres undefined) | < 1000 |
| CC(=O)Nc1nc2ccc(-c3ccc(NC4CCNCC4)nc3)cc2s1 | < 1000 |
| CC(=O)Nc1cn2cc(-c3cnc(N)c(OC(F)F)c3)ccc2n1 | < 1000 |
| Nc1ncc(-c2ccc3nc(NC(=O)C4CCC(=O)NC4)cn3c2)cc1C(F)(F)F (centres undefined) | < 1000 |

| Compound | IC50 [nM] |
| --- | --- |
| CCN(CC)CCCc1c(NC(C)=O)nc2ccc(-c3cnc(N)c(C(F)(F)F)c3)cn12 | < 10000 |
| CC(=O)Nc1nc2ccc(-c3ccc(N)nc3)cn2c1Br | < 10000 |
| Nc1ncc(-c2ccc3nc(NC(=O)N4CCC[C@H]4C(=O)O)cn3c2)cc1C(F)(F)F | < 10000 |
| CC(=O)Nc1cn2cc(-c3cnc(N)nc3N)ccc2n1 | < 10000 |
| CC(=O)Nc1cn2cc(-c3cnc(N)c(C(F)(F)F)c3)cc(C)c2n1 | ≥ 25000 |
| CC(=O)Nc1cn2nc(-c3cnc(N)c(-c4ccccc4Cl)c3)ccc2n1 | < 1000 |
| Nc1cc(C(=O)Nc2nc3ccc(-c4cnc(N)c(C(F)(F)F)c4)cc3s2)ccn1 | < 1000 |
| CC(=O)Nc1cn2cc(-c3cnc(N)c(S(=O)(=O)N4CCC(Oc5ccc(F)cc5)CC4)c3)ccc2n1 | < 1000 |
| CC(=O)Nc1cn2c(-c3cnc(N)c(C(F)(F)F)c3)c(-c3cnc(N)c(C(F)(F)F)c3)ccc2n1 | ≥ 25000 |
| Nc1ncc(-c2ccc3nc(NC(=O)[C@@H]4CCC(=O)O4)cn3c2)cc1C(F)(F)F | < 1000 |
| Nc1ncc(-c2ccc3nc(NC(=O)C4CCCC(=O)N4)cn3c2)cc1C(F)(F)F (centres undefined) | < 1000 |
| Nc1ncc(-c2ccc3nc(NC(=O)N4CCCC4c4nccs4)cn3c2)cc1C(F)(F)F (centres undefined) | < 1000 |
| Nc1ccc(-c2ccc3nc(NC(=O)OCCN4CCCCC4)sc3c2)cn1 | < 1000 |
| CC(=O)Nc1cn2cc(-c3cnc(N)c(Oc4ccc(N5CCN(C(C)C)CC5)cc4)n3)ccc2n1 | < 1000 |
| Nc1ncc(-c2ccc3nc(NC(=O)[C@@H](O)CCC(=O)O)cn3c2)cc1C(F)(F)F | < 1000 |
| Nc1cccc(C(=O)Nc2nc3ccc(-c4cnc(N)c(C(F)(F)F)c4)cc3s2)n1 | < 10000 |
| CC(=O)Nc1cn2cc(-c3cnc(N)cc3C(F)(F)F)ccc2n1 | < 10000 |
| COc1ccccc1C1CCCN1C(=O)Nc1cn2cc(-c3cnc(N)c(C(F)(F)F)c3)ccc2n1 (centres undefined) | < 1000 |

Molecular target: PIK3CA (human) (UniProt P42336)
Experiment: Inhibition of A2780 Cell Proliferation

| Compound | EC50 [nM] |
| --- | --- |
| CNC(=O)[C@@H]1CCCN1C(=O)Nc1cn2cc(-c3cnc(N)c(C(F)(F)F)c3)ccc2n1 | < 25000 |
| COCCOc1nc(-c2ccc3nc(NC(C)=O)cn3n2)cnc1N | < 10000 |
| CC(C)(C)OC(=O)N1CCC1C(=O)Nc1cn2nc(-c3cnc(N)c(C(F)(F)F)c3)ccc2n1 (centres undefined) | < 25000 |
